# Measured values published in patent US20110190492A1, “DIAGNOSTIC PROBE FOR CONFORMATION DISEASE” (TOHOKU UNIVERSITY, priority 2005, published 2011).
# Read-outs that look alike come from different tables or passages of the source.
# Legend:
# neurofibrillary tangle = experiment: Staining test on a brain section of an Alzheimer disease patient (neurofibrillary tangle); assay type: binding, human (Alzheimer disease patient); details: 100 μM compound in 50% ethanol, 10 minutes, fluorescence microscopy
# From the text: (§1) (1) Brain specimens at the temporal lobe and the hippocampus of patients to which a definitive diagnosis of Alzheimer disease had been given, and those of normal senile persons were used. The specimens were given by our coworker, Fukushimura Hospital, Longevity Medicine Institute, and we were given their consent of use of the specimens for our study purpose by the bereaved of the patients (Fukushimura Hospital Ethical Review Board Approval No. 20).
# (§2) (2) The paraffin-embedded brain tissue was cut into slices having a thickness of 6 μm or 8 μm, and extended and dried on a slide. The paraffin brain section was processed for paraffin removal in xylene twice for 10 minutes, 100% ethanol twice for 5 minutes, 90% ethanol for 5 minutes and running water for 10 minutes in that order.
# (§3) (3) For pretreatment prior to the staining treatment with a compound of the invention, the sections were processed for autofluorescence removal with lipofuscin. First, the paraffin-removed sections were dipped in 0.25% KMnO4 solution for 20 minutes. These were washed with PBS, twice for 2 minutes, then dipped in 0.1% K2S2O5/oxalic acid solution for about 5 seconds, and then further washed with PBS, three times for 2 minutes.
# (§4) (4) About 150 μl of a 100 μM solution of a compound of the invention dissolved in 50% ethanol was dropwise applied to the section and reacted for 10 minutes. After dipped five times in tap water, the section was entrapped with Fluor Save Reagent (Calbiochem), and analyzed through microscopy with a fluorescence microscope (Nikon, Eclipse 80i). The images were taken with a digital camera (Nikon Dxm 1200F or Photometrics' Cool SNAP ES).
# amyloid β protein = molecular target: T1, amyloid β protein (Homo sapiens, UniProt P05067); experiment: Staining test on a brain section of an Alzheimer disease patient (amyloid β protein); assay type: binding, human (Alzheimer disease patient); details: 100 μM compound in 50% ethanol, 10 minutes, fluorescence microscopy
# T1 construct: from tissue; host or cells: paraffin-embedded human brain sections (temporal lobe, hippocampus) of Alzheimer disease patients
# From the text: as §1, §2, §3, §4
# [1] = Brain permeability of [^18F]-labeled compound in mice; assay type: in vivo, male ICR mice; details: 2 minutes after intravenous administration, radioactivity
# Procedure: The partitioning HPLC fraction containing [^18F]THK525, [^18F]THK702, [^18F]THK727 or [^18F]THK763, obtained through labeling production, was diluted with distilled water (about 20 mL), then loaded in Sep-Pak tC18 cartridge (by waters). The cartridge was washed with distilled water (5 to 10 mL), and then the labeled compound was eluted with EtOH (3 to 5 mL). A suitable amount of 5% Polysorbate 80/ethanol solution was added to the EtOH eluate, and the solvent was evaporated away with heating at 80° C. with a rotary evaporator. Thus obtained, a mixture of the labeled compound and Polysorbate 80 was dissolved in physiological saline, thereby preparing a labeled compound-containing physiological saline. Thus prepared, the radiochemical purity of the chemical solution was 95% or more.
# [^18F]THK525, [^18F]THK702, [^18F]THK727 or […] to male ICR mice (6 to 7 weeks-age) via their tail vein. From the radioactivity deposition in the brain after 2 and 30 minutes, the brain permeability of the labeled compound was assessed. The radiochemical purity of the labeled compound-containing physiological saline used was at least 95%, and the relative radioactivity thereof was from 18.5 to 148 GBq/μmol; and from 1.11 to 2.22 MBq of the labeled compound was administered to one mouse. Regarding the assessment of the radioactivity deposition, the proportion of the radioactivity per the unit weight of the sample tissue to the overall radioactivity given to the test animal (% injected dose/g of tissue; % ID/g) was taken as the index. For measuring the radioactivity, used was a gamma counter (1480 WIZARD, by Perkin Elmer). The experiment protocol was as follows: A labeled compound was administered to mice via their tail vein. After 2 and 30 minutes, the cervical spine of the mouse was dislocated under ether anesthesia. Immediately, the blood was collected from its heart, and the whole brain (including cerebellum and brainstem) was taken out. The radioactivity and the tissue weight of each sample were measured, and from the data, % ID/g was computed.
# [2] = tested on: histidine-requiring Salmonella typhimurium TA100 and TA98 strains; experiment: Mutagenicity test (reverse mutation test); assay type: cell-based
# Procedure: In view of their use, it is desirable that the compounds of the invention have no mutagenicity or have little mutagenicity to a level causing no problem. For investigating the gene mutagenesis of the compounds of the invention, herein carried out was a reverse mutation test with histidine-requiring Salmonella typhimurium TA100 and TA98 strains. Two tests were carried out. One is a test for dose determination test; and the other is for mutagenicity.
# The test methods and the mutagenicity of the compounds of the invention are mentioned below. In the dose determination test, six doses of 0.160, 0.800, 4.00, 20.0, 100 and 500 μg/plate (common ratio 5) were tried.
# As a result of the dose determination test, when the mutagenicity of the test compound was admitted, then the actual test for mutagenicity was carried out, using the dose capable of giving an accurate dose-reaction curve. When no mutagenicity of the test compound was admitted in the dose determination test and when the growth inhibition of the test cells was admitted therein, then the dose to present the growth inhibition was taken as the maximum dose; and when the growth inhibition was not admitted, then a dose of 5000 μg/plate was taken as the maximum dose. With that, the actual test for mutagenicity was carried out on the level of 6 doses (common ratio 2).
# First, a test compound was dissolved or suspended in DMSO, then diluted in order to prepare test compound liquids having a varying concentration.
# 100 μl of a test compound liquid or a negative control (DMSO) solution was put into a sterilized test tube. Then, for the case in the absence of a metabolic activation system (−S9mix), 500 μl of 0.1 mol/liter sodium-phosphate buffer (pH 7.4) was added to it; and for the case in the presence of a metabolic activation system (+S9mix), 500 μl of S9mix was added to it.
# Next, 100 μl of the test strain suspension that had been cultivated with shaking at 37° C. for 8 hours was added to it, and preincubated in a shaking thermostat at 37° C. for 20 minutes. After shaken, 2 ml of top agar was added to it, and the contents were mixed.
# Next, the mixture was poured onto a minimal glucose agar plate medium (plate) and spread uniformly thereon, then the top agar was solidified, and the plate was transferred into a thermostat and incubated at 37° C. for 48 hours.
# Then, the number of the colonies grown through reverse mutation was counted.
# For counting it, […]. After area correction and miss-counting correction, the number of the colonies was computed. When the colony analyzer could not be used owing to the deposition of the test compound or the cell growth inhibition, then the number of the colonies was counted with the naked eye.
# In case where the number of the colonies through reverse mutation increased two times or more that of the negative control and where the dose dependency or the reproducibility of the increase was admitted, then the tested sample was decided as positive. When the sample was decided as positive, then the relative activity that indicates the relative comparative value of the intensity of the mutagenicity of the test compound was obtained according to the following formula:
# Relative Activity={(number of colonies per plate having the concentration)−(number of colonies per negative control plate)}/the value of concentration (mg/plate).
# Amyloid β protein 1-40 = molecular target: T2, Amyloid β protein 1-40 (Homo sapiens, UniProt P05067); experiment: Fluorescence Congo red method; assay type: binding; details: 1 h, compound 10 μM, amyloid β protein 5 μM
# T2 construct: Amyloid β protein 1-40 (bought from Peptide Laboratory); purchased Peptide Laboratory
# Procedure: (1) Amyloid β protein 1-40 (bought from Peptide Laboratory) was dissolved in a phosphate buffer (pH 7.4) and left at 37° C. for 4 days.
# (2) 50 μl of Congo red dissolved in the buffer was applied to a 96-well microplate (final concentration, 0.1, 0.3, 1 μM).
# (3) 100 μl of amyloid β protein was added to it (final concentration 5 μM), and left as such for 30 minutes.
# (4) 100 μl of a test compound dissolved in the buffer was added to it (final concentration, 10 and left as such for 60 minutes.
# (5) Using a fluorescence microplate reader (Spectra Max 190 by Molecular Device), the sample was analyzed at the optimum exciting wavelength and the test wavelength that had been previously determined.
# (6) The fluorescence intensity in the presence of the test compound, amyloid β protein and Congo red is represented by A; that in the presence of the test compound and Congo red is by B; that in the presence of the test compound and amyloid β protein is by C; and that in the presence of only the test compound is by D. The β structure recognition of the test compound is computed according to the following formula:
# β structure recognition (%) of test compound={(A−B)/(C−D)}×100.
# [3] = Acute toxicity test, intravenous administration to mice; assay type: in vivo; details: mice observed for 7 days
# Procedure: The compounds of the invention were tested for their acute toxicity through intravenous administration thereof to mice. Four Crj:CD1 male mice formed one test group, and some test groups of those mice were used (the mean body weight of the mice of each group was from 31 to 32 g). A test compound was dissolved in a mixture of 1 N HCl, polyethylene glycol-400 and distilled water, or dissolved in DMSO, and then diluted with distilled water. This was administered to each mouse via its tail vein.
# [4] = irrespective of the absence or presence of S9mix
# T1 sequence (P05067 672-713 limits assumed): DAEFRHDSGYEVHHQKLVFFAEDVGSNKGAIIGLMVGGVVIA
# T2 sequence (P05067 672-711): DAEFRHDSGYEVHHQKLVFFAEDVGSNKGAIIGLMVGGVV
Compound,binding to neurofibrillary tangle in the brain section of an Alzheimer disease patient (neurofibrillary tangle),binding to amyloid β protein in the brain section of an Alzheimer disease patient (amyloid β protein),Brain Permeability of [^18F]-labeled Compound: Brain [1],Brain Permeability of [^18F]-labeled Compound: Plasma [1],Maximum Permissible Dose [3],also measured
"CN1C=CC(=C/C=C2\C=Nc3ccccc32)C=C1 [THK-185, 3-[2-(1-methyl-1H-pyridin-4-ylidene)-ethylidene]-3H-indole]",bound to the amyloid β protein and the neurofibrillary tangle,bound to the amyloid β protein,,,,
"CN1C=CC(=CC=C2C=CC(=O)C=C2)C=C1 [THK-317, 4-[2-(1-methyl-1H-pyridin-4-ylidene)-ethylidene]-cyclohexa-2,5-dienone]",bound to the amyloid β protein and the neurofibrillary tangle,bound to the amyloid β protein,,,,
OCC(CF)Oc1ccc2nc(/C=C/c3cnc(N4CCOCC4)s3)oc2c1 (stereo not drawn) [[^18F]THK-702],,,4.2 % ID/g or ml,2.3 % ID/g or ml,,
"OCC(CF)COc1ccc2nc(/C=C/c3cnc(N4CCOCC4)s3)oc2c1 (stereo not drawn) [THK-727, 2-fluoromethyl-3-[2-[2-(2-morpholin--yl-thiazol-5-yl)-vinyl]-benzoxazol-6-yloxy]-propan-1-ol]",the white space arrow head indicates neurofibrillary tangle,The white space arrow indicates amyloid β protein,,,≧10 mg/kg,"relative activity [2, 4]: minus; activity at 10 µM (Amyloid β protein 1-40; Congo red 0.1 μM, read-out: Binding Percentage of Compound in the presence of 0.1 μM CR): 73.6%; activity at 10 µM (Amyloid β protein 1-40; Congo red 0.3 μM, read-out: Binding Percentage of Compound in the presence of 0.3 μM CR): 35%; activity at 10 µM (Amyloid β protein 1-40; Congo red 1 μM, read-out: Binding Percentage of Compound in the presence of 1 μM CR): 3.1%"
"CNc1ncc(/C=C/c2nc3ccc(OC(CO)CF)cc3o2)s1 (stereo not drawn) [THK-761, (E)-6-[(1-fluoromethyl-2-hydroxy)ethoxy]-2-[2-[2-methylaminothiazol-5-yl]ethenyl]-benzoxazole]",,The white space arrow indicates amyloid β protein,,,≧10 mg/kg,relative activity ([2]; in the presence of S9mix): weak
FCCOc1ccc2nc(/C=C/c3cnc(N4CCOCC4)s3)oc2c1 [[^18F]THK-525],,,4.7 % ID/g or ml,2.8 % ID/g or ml,,
OCC(CF)COc1ccc2nc(/C=C/c3cnc(N4CCOCC4)s3)oc2c1 (stereo not drawn) [[^18F]THK-727],,,4.1 % ID/g or ml,2.9 % ID/g or ml,,
"OCC(CF)Oc1ccc2nc(/C=C/c3cnc(N4CCCC4)s3)oc2c1 (stereo not drawn) [THK-752, (E)-6-[(1-fluoromethyl-2-hydroxy)ethoxy]-2-[2-[2-(pyrrolidin-1-yl)-thiazol-5-yl]ethenyl]benzoxazole]",,The white space arrow indicates amyloid β protein,,,≧10 mg/kg,"relative activity [2, 4]: minus"
CN(C)c1ncc(/C=C/c2nc3ccc(OC(CO)CF)cc3o2)s1 (stereo not drawn) [[^18F]THK-763],,,4.6 % ID/g or ml,3.7 % ID/g or ml,,
"CN(C)c1ncc(/C=C/c2nc3ccc(OC(CO)CF)cc3o2)s1 (stereo not drawn) [THK-763, (E)-6-[(1-fluoromethyl-2-hydroxy)ethoxy]-2-[2-[2-dimethylamino-thiazol-5-yl]ethenyl]benzoxazole]",,The white space arrow indicates amyloid β protein,,,≧10 mg/kg,relative activity ([2]; in the presence of S9mix): weak
"CN(C)c1ccc(-c2nnc(-c3sc4ccccc4c3Cl)o2)cc1 [THK-258, [4-[5-(3-chloro-benzo[b]thiophen-2-yl)-[1,3,4]oxadiazol-2-yl]-phenyl]-dimethylamine]",bound to the amyloid β protein and the neurofibrillary tangle,bound to the amyloid β protein,,,,
